Test results as given in patent publication US7834007B2, “CGRP antagonists” (Bristol-Myers Squibb Company, priority 2005, dated 2010).

Biological target: T1, CGRP receptor (Homo sapiens, UniProt O60894+Q16602)
T1 construct: endogenous in cells; host or cells: SK-N-MC cells (membrane homogenate)
Test: CGRP radioligand binding assay ([125I]-CGRP displacement, SK-N-MC cell homogenate)
Settings: displacement of 50% of [125I]-CGRP binding, room temperature 2 h
Description: CGRP radioligand binding assay. Tissue Culture. SK-N-MC cells were grown at 37° C. in 5% CO2 as a monolayer in medium consisting of MEM with Earle's salts and L-glutamine (Gibco) supplemented with 10% fetal bovine serum (Gibco).
Cell Pellets. The cells were rinsed twice with phosphate-buffered saline (155 mM NaCl, 3.3 mM Na2HPO4, 1.1 mM KH2PO4, pH 7.4), and incubated for 5-10 min. at 4° C. in hypotonic lysis buffer consisting of 10 mM Tris (pH 7.4) and 5 mM EDTA. The cells were transferred from plates to polypropylene tubes (16×100 mm) and homogenized using a polytron. Homogenates were centrifuged at 32,000×g for 30 min. The pellets were resuspended in cold hypotonic lysis buffer with 0.1% mammalian protease inhibitor cocktail (Sigma) and assayed for protein concentration. The SK-N-MC homogenate was then aliquoted and stored at −80° C. until needed.
Binding Assay. The compounds of invention were solubilized and carried through serial dilutions using 100% DMSO. Aliquots from the compound serial dilutions were further diluted 25 fold into assay buffer (50 mM Tris-Cl pH 7.5, 5 mM MgCl2, 0.005% Triton X-100) and transferred (volume 50 μl) into 96 well assay plates. [^125I]-CGRP (Amersham Biosciences) was diluted to 60 pM in assay buffer and a volume of 50 μl was added to each well. SK-N-MC pellets were thawed, diluted in assay buffer with fresh 0.1% mammalian protease inhibitor cocktail (Sigma), and homogenized again. SK-N-MC homogenate (5 μg/well) was added in a volume of 100 μl. The assay plates were then incubated at room temperature for 2 h. Assays were stopped by addition of excess cold wash buffer (20 mM Tris-Cl pH 7.5, 0.1% BSA) immediately followed by filtration over glass fiber filters (Whatman GF/B) previously soaked in 0.5% PEI. Non-specific binding was defined with 1 μM beta-CGRP. Protein bound radioctivity was determined using a gamma or scintillation counter. The IC50 was defined as the concentration of a compound of invention required to displace 50% of radioligand binding. Results are tabulated in Table 1 as follows: 0.01 nM≦A≦10 nM; 10 nM<B≦100 nM; 100 nM<C≦1000 nM; D>1000 nM.

T1 sequence (Q16602 23-461): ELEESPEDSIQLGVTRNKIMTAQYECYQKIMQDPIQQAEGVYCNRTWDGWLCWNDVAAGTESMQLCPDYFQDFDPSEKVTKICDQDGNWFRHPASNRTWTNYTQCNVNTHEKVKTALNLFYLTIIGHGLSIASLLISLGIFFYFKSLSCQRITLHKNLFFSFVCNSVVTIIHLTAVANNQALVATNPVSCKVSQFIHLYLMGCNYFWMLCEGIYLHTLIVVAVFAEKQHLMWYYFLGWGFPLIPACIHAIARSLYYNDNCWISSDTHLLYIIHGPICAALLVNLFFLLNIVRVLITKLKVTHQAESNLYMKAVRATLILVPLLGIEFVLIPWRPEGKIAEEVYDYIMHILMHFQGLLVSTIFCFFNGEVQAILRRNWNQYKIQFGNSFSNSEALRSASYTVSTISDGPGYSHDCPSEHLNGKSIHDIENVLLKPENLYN
T1 sequence (O60894 27-148): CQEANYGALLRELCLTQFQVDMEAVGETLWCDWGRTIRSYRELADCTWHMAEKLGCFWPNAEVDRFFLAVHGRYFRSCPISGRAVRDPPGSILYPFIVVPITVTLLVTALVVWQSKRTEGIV

Row | IC50 [nM] | SMILES
1 | 0.01 to 10 | Cc1cc(C[C@@H](NC(=O)N2CCC(c3cc4cccc(F)c4[nH]c3=O)CC2)C(=O)N[C@@H](CCCCN)C(=O)N2CCN(c3ccncc3)CC2)cc2cn[nH]c12 [Example 6, N-((R)-1-((S)-6-amino-1-oxo-1-(4-(pyridin-4-yl)piperazin-1-yl)hexan-2-ylamino)-3-(7-methyl-1H-indazol-5-yl)-1-oxopropan-2-yl)-4-(8-fluoro-2-oxo-1,2-dihydroquinolin-3-yl)piperidine-1-carboxamide]
2 | 0.01 to 10 | Cc1cc(C[C@@H](NC(=O)N2CCC(c3cc4cccnc4[nH]c3=O)CC2)C(=O)N[C@@H](CCCCN)C(=O)N2CCN(c3ccncc3)CC2)cc2cn[nH]c12 [Example 7, N-((R)-1-((S)-6-amino-1-oxo-1-(4-(pyridin-4-yl)piperazin-1-yl)hexan-2-ylamino)-3-(7-methyl-1H-indazol-5-yl)-1-oxopropan-2-yl)-4-(2-oxo-1,2-dihydro-1,8-naphthyridin-3-yl)piperidine-1-carboxamide]
3 | 0.01 to 10 | Cc1cc(C[C@@H](NC(=O)N2CCC(c3cc4ccccc4[nH]c3=O)CC2)C(=O)N[C@@H](CCCCNC(=O)OC(C)(C)C)C(=O)N2CCN(c3ccncc3)CC2)cc2oc(=O)[nH]c12 [Example 8, tert-Butyl (S)-5-((R)-3-(4-methyl-2-oxo-2,3-dihydrobenzo[d]oxazol-6-yl)-2-(4-(2-oxo-1,2-dihydroquinolin-3-yl)piperidine-1-carboxamido)propanamido)-6-oxo-6-(4-(pyridin-4-yl)piperazin-1-yl)hexylcarbamate]
4 | 0.01 to 10 | Cc1cc(C[C@@H](NC(=O)N2CCC(N3Cc4cccc(F)c4NC3=O)CC2)C(=O)N[C@@H](CCCCNC(=O)OC(C)(C)C)C(=O)N2CCN(c3ccncc3)CC2)cc2nn[nH]c12 [Example 9, tert-Butyl (S)-5-((R)-2-(4-(8-fluoro-2-oxo-1,2-dihydroquinazolin-3(4H)-yl)piperidine-1-carboxamido)-3-(7-methyl-1H-benzo[d][, 2,3]triazol-5-yl)propanamido)-6-oxo-6-(4-(pyridin-4-yl)piperazin-1-yl)hexylcarbamate]

The remaining lines, values behind:

Row | SMILES | IC50 [nM]
5 | Cc1cc(C[C@@H](NC(=O)N2CCC(c3cc4ccccc4[nH]c3=O)CC2)C(=O)N[C@@H](CCCCN)C(=O)N2CCN(c3ccncc3)CC2)cc2cn[nH]c12 [Example 2, N-((R)-1-((S)-6-amino-1-oxo-1-(4-(pyridin-4-yl)piperazin-1-yl)hexan-2-ylamino)-3-(7-methyl-1H-indazol-5-yl)-1-oxopropan-2-yl)-4-(2-oxo-1,2-dihydroquinolin-3-yl)piperidine-1-carboxamide] | 0.01 to 10
6 | Cc1cc(C[C@@H](NC(=O)N2CCC(N3Cc4ccccc4NC3=O)CC2)C(=O)N[C@@H](CCCCNC(=O)OC(C)(C)C)C(=O)N2CCN(c3ccncc3)CC2)cc2cn[nH]c12 [Example 3, tert-Butyl (S)-5-((R)-3-(7-methyl-1H-indazol-5-yl)-2-(4-(2-oxo-1,2-dihydroquinazolin-3(4H)-yl)piperidine-1-carboxamido)propanamido)-6-oxo-6-(4-(pyridin-4-yl)piperazin-1-yl)hexylcarbamate] | 0.01 to 10
7 | Cc1cc(C[C@@H](NC(=O)N2CCC(N3Cc4ccccc4NC3=O)CC2)C(=O)N[C@@H](CCCCN)C(=O)N2CCN(c3ccncc3)CC2)cc2cn[nH]c12 [Example 4, N-((R)-1-((S)-6-Amino-1-oxo-1-(4-(pyridin-4-yl)piperazin-1-yl)hexan-2-ylamino)-3-(7-methyl-1H-indazol-5-yl)-1-oxopropan-2-yl)-4-(2-oxo-1,2-dihydroquinazolin-3(4H)-yl)piperidine-1-carboxamide] | 0.01 to 10
8 | Cc1cc(C[C@@H](NC(=O)N2CCC(c3cc4ccccc4[nH]c3=O)CC2)C(=O)N[C@@H](CCCCN)C(=O)N2CCC(N3CCCCC3)CC2)cc2cn[nH]c12 [Example 5, N-((R)-1-((S)-6-amino-1-oxo-1-(4-(piperidin-1-yl)piperidin-1-yl)hexan-2-ylamino)-3-(7-methyl-1H-indazol-5-yl)-1-oxopropan-2-yl)-4-(2-oxo-1,2-dihydroquinolin-3-yl)piperidine-1-carboxamide] | 0.01 to 10
